Measurements taken from US5284871A, “Oxygen removal” (priority 1990, dated 1994).

Legend:
E. coli = experiment: Growth of E. coli in nutrient broth with and without sodium ascorbate and metals; type: cell-based; design: Growth of E. coli in nutrient broth: unit not given here; settings: 25° C.; for Growth of E. coli in nutrient broth: sodium ascorbate 0.2%, metal 88 μM
Experimental: (§1) To determine the antimicrobial effects of Oxysorb, 10 ml of broth in 16×100 screw-capped tubes were inoculated with diluted, overnight cultures to achieve an initial population of 100 to 1000 cells/ml. Nutrient broth was used for E. coli and Pseudomonas fluorescens; fluid thioglycollate medium was used for Clostridium sporogenes. Following inoculation, sodium ascorbate was added at a level of 0.2%, then 88 μM metal salt (copper gluconate, cobalt chloride, or ferric chloride). Ascorbate, copper, cobalt, and iron solutions were prepared and filter sterilized just prior to use. Tubes were incubated at 25° C. with caps tightened, unless they were placed in anaerobic (Gas Pak) jars. Anaerobically incubated tubes had loose caps to allow for generation of an anaerobic environment in the tube headspace. Samples from two individual tubes were plated periodically.

Pseudomonas fluorescens = experiment: Growth of Pseudomonas fluorescens in nutrient broth with and without sodium ascorbate and metals; type: cell-based; settings: 25° C.; for Growth of Pseudomonas fluorescens in nutrient broth: sodium ascorbate 0.2%, metal 88 μM; for effect on the growth of Pseudomonas fluorescens: nutrient broth
Experimental: as §1

yeast = experiment: Yeast growth at 25° C. with the oxygen scavenging system; type: cell-based; settings: 4-day period, 0.004% copper gluconate, 0.2% sodium ascorbate
[1] = Dissolved oxygen consumption measured with a Clark oxygen electrode; type: physicochemical; settings: for effect of chelating agent on oxygen removal by Oxysorb: 1 mM chelating agent, 100 μM copper gluconate, 10 mM sodium ascorbate; for reducing agent in copper-mediated oxygen removal: 1 mM reducing agent, 100 micromolar copper gluconate; for oxygen utilization by one component alone / effect of protein on the rate of oxygen removal by Oxysorb: pH 7.4; for effect of protein on the rate of oxygen removal by Oxysorb: 0.2% ascorbic acid, 40 ppm copper gluconate, with and without 2 mM glycine
Experimental: The oxygen tension was measured in 1 mM sodium ascorbate and 50 mM Tris, pH 7.4 at 25° C. using a Clark oxygen electrode.
Initial rates were measured in 50 micromolar copper sulfate, 1 mM sodium ascorbate, and 50 mM Tris, pH 7.4, at 25° C.
The initial rates were determined in 50 micromolar copper sulfate, 1 mM sodium ascorbate, and 50 mM Tris, pH 7.4 at 10° C., 15° C., 20° C., 25° C., 30° C., 35° C., and 40° C.
The rate of O2 consumption at 25° C. in 10 mM sodium ascorbate, 100 micromolar copper gluconate, 50 mM Tris, pH 7.4, and 1 mM chelating agent was monitored using a Clark electrode.
The rate of O2 consumption at 25° C. in 10 mM sodium ascorbate, 50 mM Tris, pH 7.4, and 100 micromolar transition metal was monitored using a Clark electrode.
The rate of O2 consumption at 25° C. in 100 micromolar copper gluconate, 50 mM Tris, pH 7.4, and 1 mM reducing agent was monitored using a Clark electrode.
Increasing amounts of ovalbumin in the absence and presence of glycine were added to the Oxysorb system and the rate of O2 consumption at 25° C. was monitored using a Clark electrode.
The chelating agents used for this experiment were glycine, L-histidine, phytic acid, and EDTA. Purified water and Tris were dispensed into the vial, and then 1 mM chelating agent and 100 μM copper gluconate were added. Upon stabilization of the oxygen electrode, the ascorbic acid was introduced and the reaction quickly took place.
Another experiment was designed to substitute a variety of transition metals and reducing agents in place of copper and ascorbate. The transition metals were ferric chloride, manganese sulfate, cobalt chloride, and chromium chloride. The final concentration of these metals was 100 micromolar in 10 mM ascorbic acid and 50 mM Tris buffer, pH 7.4. To start the reaction, the metal was added to these solution, and the removal of dissolved oxygen was monitored using a Clark electrode.
The reducing agents substituted for ascorbic acid were sodium sulfite, cysteine, and catechol. The order of addition was purified water, Tris, and 1 mM reducing agent. When the electrode stabilized, the copper gluconate was added.
Experiments were conducted to determine the effect of protein on the reaction of the Oxysorb system. Using a Clark electrode, the oxygen consumption was measured in solutions containing 50 mM Tris, pH 7.4, 0.2% ascorbic acid, 40 ppm copper gluconate, variable amounts of ovalbumin, with and without 2 mM glycine. The order of addition was water, Tris, glycine, copper gluconate, ovalbumin, and ascorbic acid.

[2] = Oxidation of ascorbic acid to dehydroascorbic acid, monitored spectrophotometrically; type: physicochemical; settings: 50 micromolar ascorbic acid, 1 micromolar Cu^2+, pH 7.4, 25° C.; 1000 U/ml catalase, 25 U/ml SOD
Experimental: The rate of oxidation at 25° C. in 50 mM Tris, pH 7.4, was monitored spectrophotometrically. […] The rate of oxidation at 25° C. in 50 mM Tris, pH 7.4, was monitored spectrophotometrically. […] Both reactions were carried out at 25° C. in 50 mM Tris, pH 7.4.

[3] = test system: polyphenol oxidase activity in potatoes; experiment: Browning of pureed potato; settings: refrigerated, seven days
Source text: A control of water and potato was pureed in a blender and placed into a screw top jar, filled to overflowing to minimize headspace. The same was done to a sample of potato and 40 ppm copper gluconate and 0.1% ascorbic acid in water. The jars were refrigerated and inverted frequently to disperse any foam formed.

[4] = test system: microorganisms in potato water; experiment: Microbiological evaluation of potato water; settings: room temperature
Experimental: Another experiment was conducted to determined if the system of the present invention could delay or prevent textural degradation of potatoes stored in water. Raw potatoes were peeled, cubed, and immersed in water and in solutions of 40 ppm copper gluconate and 0.1% or 0.5% ascorbic acid. The samples were kept in uncovered glass mason jars at room temperature.

[5] = anaerobic incubation (Gas Pak jar)

copper gluconate [Cu^2+]
Growth of E. coli in nutrient broth (E. coli; Time 0 days): 510
Growth of E. coli in nutrient broth (E. coli; Time 0.25 days): 3100
Growth of E. coli in nutrient broth (E. coli; Time 1 day): 4.7 × 10^7
Growth of E. coli in nutrient broth (E. coli; Time 2 days): 4.8 × 10^7
Growth of E. coli in nutrient broth (E. coli; Time 5 days): 7.3 × 10^6
effect on the growth of E. coli (E. coli; [5]): further suppressed growth
effect on the growth of E. coli (E. coli; sealed tubes, nutrient broth): reduced both the growth rate and the maximum population
Growth of Pseudomonas fluorescens in nutrient broth (Pseudomonas fluorescens; Time 0 days): 140
Growth of Pseudomonas fluorescens in nutrient broth (Pseudomonas fluorescens; Time 0.25 days): 180
Growth of Pseudomonas fluorescens in nutrient broth (Pseudomonas fluorescens; Time 1 day): 9.6 × 10^7
Growth of Pseudomonas fluorescens in nutrient broth (Pseudomonas fluorescens; Time 6 days): 1.6 × 10^8
effect on yeast growth (yeast): no toxicity
transition metal as catalyst of oxygen removal ([1]; 100 micromolar metal, 10 mM ascorbic acid, 50 mM Tris pH 7.4): best catalyst

N[C@@H](Cc1c[nH]cn1)C(=O)O [Histidine, L-histidine]
effect of chelating agent on oxygen removal by Oxysorb ([1]; pH 7.4, 25° C.): some inhibition

superoxide dismutase
effect on oxidation of ascorbic acid in the presence of Cu^2+ [2]: substantial acceleration

O=P(O)(O)O[C@H]1[C@H](OP(=O)(O)O)[C@@H](OP(=O)(O)O)[C@H](OP(=O)(O)O)[C@@H](OP(=O)(O)O)[C@H]1OP(=O)(O)O [Phytic acid, phytic acid]
effect of chelating agent on oxygen removal by Oxysorb ([1]; pH 7.4, 25° C.): slightly slower than the control

N[C@@H](CS)C(=O)O [cysteine]
reducing agent in copper-mediated oxygen removal ([1]; pH 7.4, 25° C.): more reactive than sulfite

[Cl][Co][Cl] [Co^2+, cobalt chloride]
Growth of E. coli in nutrient broth (E. coli; Time 0 days): 430
Growth of E. coli in nutrient broth (E. coli; Time 0.25 days): 690
Growth of E. coli in nutrient broth (E. coli; Time 1 day): 8.1 × 10^5
Growth of E. coli in nutrient broth (E. coli; Time 2 days): 2.2 × 10^6
Growth of E. coli in nutrient broth (E. coli; Time 5 days): 4.5 × 10^8
effect on the growth of E. coli (E. coli; sealed tubes, nutrient broth): Growth was slowed but not stopped
Growth of Pseudomonas fluorescens in nutrient broth (Pseudomonas fluorescens; Time 0 days): 150
Growth of Pseudomonas fluorescens in nutrient broth (Pseudomonas fluorescens; Time 0.25 days): 65
Growth of Pseudomonas fluorescens in nutrient broth (Pseudomonas fluorescens; Time 1 day): 1.9 × 10^6
Growth of Pseudomonas fluorescens in nutrient broth (Pseudomonas fluorescens; Time 4 days): 5.6 × 10^8
Growth of Pseudomonas fluorescens in nutrient broth (Pseudomonas fluorescens; Time 6 days): 5.5 × 10^7
effect on the growth of Pseudomonas fluorescens (Pseudomonas fluorescens): slowed the growth

O=C1O[C@H]([C@@H](O)CO)C([O-])=C1O.[Na+] [Ascorbate, sodium ascorbate]
Growth of E. coli in nutrient broth (E. coli; Time 0 days): 350
Growth of E. coli in nutrient broth (E. coli; Time 0.25 days): 4600
Growth of E. coli in nutrient broth (E. coli; Time 1 day): 1.6 × 10^8
Growth of E. coli in nutrient broth (E. coli; Time 2 days): 4.6 × 10^8
Growth of E. coli in nutrient broth (E. coli; Time 5 days): 3.8 × 10^8
effect on the growth of E. coli (E. coli; [5]): slightly reduced the maximum population
effect on the growth of E. coli (E. coli; sealed tubes, nutrient broth): little effect
Growth of Pseudomonas fluorescens in nutrient broth (Pseudomonas fluorescens; Time 0 days): 160
Growth of Pseudomonas fluorescens in nutrient broth (Pseudomonas fluorescens; Time 0.25 days): 170
Growth of Pseudomonas fluorescens in nutrient broth (Pseudomonas fluorescens; Time 1 day): 4.7 × 10^7
Growth of Pseudomonas fluorescens in nutrient broth (Pseudomonas fluorescens; Time 4 days): 7.2 × 10^8
Growth of Pseudomonas fluorescens in nutrient broth (Pseudomonas fluorescens; Time 6 days): 2.7 × 10^8
oxygen utilization by one component alone [1]: No oxygen utilization

O=S([O-])[O-].[Na+].[Na+] [sulfite, sodium sulfite]
reducing agent in copper-mediated oxygen removal ([1]; pH 7.4, 25° C.): more reactive than catechol

catalase
effect on oxidation of ascorbic acid in the presence of Cu^2+ [2]: inhibition

CC(O)CO (centres unmarked) [propylene glycol]
effect of freezing point depressant on the rate of oxygen removal ([1]; 50 micromolar copper sulfate, 1 mM sodium ascorbate, pH 7.4, 25° C.): not affected significantly

NCC(=O)O [glycine]
effect of chelating agent on oxygen removal by Oxysorb ([1]; pH 7.4, 25° C.): faster than that of the control
effect of protein on the rate of oxygen removal by Oxysorb [1]: diminished this protein effect

O=S([O-])O.[Na+] [sodium bisulfite]
browning of pureed potato [3]: this browning does not occur
effect on chemical and microbiological events in potatoes stored in water [4]: no effect at all

O=S(=O)([O-])[O-].[Cu+2] [copper sulfate]
oxygen utilization by one component alone [1]: No oxygen utilization

[Cl][Fe]([Cl])[Cl] [Fe^3+, ferric chloride]
Growth of E. coli in nutrient broth (E. coli; Time 0 days): 420
Growth of E. coli in nutrient broth (E. coli; Time 0.25 days): 6400
Growth of E. coli in nutrient broth (E. coli; Time 1 day): 2.1 × 10^8
Growth of E. coli in nutrient broth (E. coli; Time 2 days): 3.4 × 10^8
Growth of E. coli in nutrient broth (E. coli; Time 5 days): 1.5 × 10^8
effect on the growth of E. coli (E. coli; sealed tubes, nutrient broth): no effect
Growth of Pseudomonas fluorescens in nutrient broth (Pseudomonas fluorescens; Time 0 days): 130
Growth of Pseudomonas fluorescens in nutrient broth (Pseudomonas fluorescens; Time 0.25 days): 160
Growth of Pseudomonas fluorescens in nutrient broth (Pseudomonas fluorescens; Time 1 day): 6.2 × 10^7
Growth of Pseudomonas fluorescens in nutrient broth (Pseudomonas fluorescens; Time 4 days): 8.1 × 10^7
Growth of Pseudomonas fluorescens in nutrient broth (Pseudomonas fluorescens; Time 6 days): 5.1 × 10^7
effect on the growth of Pseudomonas fluorescens (Pseudomonas fluorescens): did not differ from the control

O=C(O)CN(CCN(CC(=O)O)CC(=O)O)CC(=O)O [EDTA]
effect of chelating agent on oxygen removal by Oxysorb ([1]; pH 7.4, 25° C.): almost completely inhibited

O=C1O[C@H]([C@@H](O)CO)C(O)=C1O [ascorbic acid]
reducing agent in copper-mediated oxygen removal ([1]; pH 7.4, 25° C.): most efficient reducing agent

B1: ovalbumin: protein added to the Oxysorb system; binds copper with high affinity (protein, UniProt P01012 2-386, looked up)
Ovalbumin: GSIGAASMEFCFDVFKELKVHHANENIFYCPIAIMSALAMVYLGAKDSTRTQINKVVRFDKLPGFGDSIEAQCGTSVNVHSSLRDILNQITKPNDVYSFSLASRLYAEERYPILPEYLQCVKELYRGGLEPINFQTAADQARELINSWVESQTNGIIRNVLQPSSVDSQTAMVLVNAIVFKGLWEKAFKDEDTQAMPFRVTEQESKPVQMMYQIGLFRVASMASEKMKILELPFASGTMSMLVLLPDEVSGLEQLESIINFEKLTEWTSSNVMEERKIKVYLPRMKMEEKYNLTSVLMAMGITDVFSSSANLSGISSAESLKISQAVHAAHAEINEAGREVVGSAEAGVDAASVSEEFRADHPFLFCIKHIATNAVLFFGRCVSP
effect of protein on the rate of oxygen removal by Oxysorb [1]: greatly decreases the rate of oxygen removal
